Measured values from PubChem BioAssay (NCI).
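Grown in 96-well plates, cells were treated for 48 hours with each compound at five concentrations. Insufficient inhibition: endpoint recorded as highest concentration tested. The concentration for 50% growth inhibition is given as GI50. The concentration for full growth arrest is given as TGI.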

Key:
Test in all cases: inhibition of tumour cell growth, NCI panel, 48 h
786-0 renal = system: 786-0 renal
A498 renal = system: A498 renal
A549 NSCLC = system: A549 NSCLC
ACHN renal = system: ACHN renal
BT-549 breast = system: BT-549 breast
CAKI-1 renal = system: CAKI-1 renal
CCRF-CEM leukemia = system: CCRF-CEM leukemia
COLO 205 colon = system: COLO 205 colon
DU-145 prostate = system: DU-145 prostate
EKVX NSCLC = system: EKVX NSCLC
HCC-2998 colon = system: HCC-2998 colon
HCT-116 colon = system: HCT-116 colon
HCT-15 colon = system: HCT-15 colon
HL-60(TB) leukemia = system: HL-60(TB) leukemia
HOP-62 NSCLC = system: HOP-62 NSCLC
HOP-92 NSCLC = system: HOP-92 NSCLC
HS 578T breast = system: HS 578T breast
HT29 colon = system: HT29 colon
IGROV1 ovarian = system: IGROV1 ovarian
K-562 leukemia = system: K-562 leukemia
KM12 colon = system: KM12 colon
LOX IMVI melanoma = system: LOX IMVI melanoma
M14 melanoma = system: M14 melanoma
MALME-3M melanoma = system: MALME-3M melanoma
MCF7 breast = system: MCF7 breast
MDA-MB-231 breast = system: MDA-MB-231 breast
MDA-MB-435 = system: MDA-MB-435
MDA-MB-468 breast = system: MDA-MB-468 breast
MOLT-4 leukemia = system: MOLT-4 leukemia
NCI-H226 lung = system: NCI-H226 lung
NCI-H23 lung = system: NCI-H23 lung
NCI-H460 lung = system: NCI-H460 lung
NCI-H522 lung = system: NCI-H522 lung
NCI/ADR-RES ovarian = system: NCI/ADR-RES ovarian
OVCAR-3 ovarian = system: OVCAR-3 ovarian
OVCAR-4 ovarian = system: OVCAR-4 ovarian
OVCAR-5 ovarian = system: OVCAR-5 ovarian
OVCAR-8 ovarian = system: OVCAR-8 ovarian
PC-3 prostate = system: PC-3 prostate
RPMI-8226 leukemia = system: RPMI-8226 leukemia
RXF 393 renal = system: RXF 393 renal
SF-268 CNS = system: SF-268 CNS
SF-295 CNS = system: SF-295 CNS
SF-539 CNS = system: SF-539 CNS
SK-MEL-2 melanoma = system: SK-MEL-2 melanoma
SK-MEL-28 melanoma = system: SK-MEL-28 melanoma
SK-MEL-5 melanoma = system: SK-MEL-5 melanoma
SK-OV-3 ovarian = system: SK-OV-3 ovarian
SN12C renal = system: SN12C renal
SNB-19 CNS = system: SNB-19 CNS
SR leukemia = system: SR leukemia
SW-620 colon = system: SW-620 colon
T-47D breast = system: T-47D breast
TK-10 renal = system: TK-10 renal
U251 CNS = system: U251 CNS
UACC-257 melanoma = system: UACC-257 melanoma
UACC-62 melanoma = system: UACC-62 melanoma
UO-31 renal = system: UO-31 renal

Cc1cc2c(c(O)c1Br)-c1ncoc1C(=O)[C@]1(C)CC[C@H](C(C)C)[C@H]21
GI50 (786-0 renal): 7.18 µM | TGI (786-0 renal): 21.9 µM | GI50 (A498 renal): > 100 µM | TGI (A498 renal): > 100 µM | GI50 (A549 NSCLC): 4.33 µM | TGI (A549 NSCLC): 29.6 µM | GI50 (ACHN renal): 10.1 µM | TGI (ACHN renal): 34 µM | GI50 (BT-549 breast): 4.64 µM | TGI (BT-549 breast): 17.1 µM | GI50 (CAKI-1 renal): 4.73 µM | TGI (CAKI-1 renal): 33.6 µM | GI50 (CCRF-CEM leukemia): 4.14 µM | TGI (CCRF-CEM leukemia): 27.1 µM | GI50 (COLO 205 colon): 2.61 µM | TGI (COLO 205 colon): 10.3 µM | GI50 (DU-145 prostate): 5 µM | TGI (DU-145 prostate): 21.2 µM | GI50 (EKVX NSCLC): 6.77 µM | TGI (EKVX NSCLC): 28.6 µM | GI50 (HCC-2998 colon): 4.22 µM | TGI (HCC-2998 colon): 17.7 µM | GI50 (HCT-116 colon): 3.17 µM | TGI (HCT-116 colon): 13.8 µM | GI50 (HCT-15 colon): 2.62 µM | TGI (HCT-15 colon): 11.8 µM | GI50 (HL-60(TB) leukemia): 2.19 µM | TGI (HL-60(TB) leukemia): 6.69 µM | GI50 (HOP-62 NSCLC): 4.45 µM | TGI (HOP-62 NSCLC): 21.7 µM | GI50 (HOP-92 NSCLC): 1.03 µM | TGI (HOP-92 NSCLC): 5.99 µM | GI50 (HS 578T breast): 5.34 µM | TGI (HS 578T breast): > 100 µM | GI50 (HT29 colon): 2.77 µM | TGI (HT29 colon): 16 µM | GI50 (IGROV1 ovarian): 4.42 µM | TGI (IGROV1 ovarian): 82.4 µM | GI50 (K-562 leukemia): 2.93 µM | TGI (K-562 leukemia): 11.6 µM | GI50 (KM12 colon): 3.49 µM | TGI (KM12 colon): 35.6 µM | GI50 (LOX IMVI melanoma): 3.71 µM | TGI (LOX IMVI melanoma): 14.5 µM | GI50 (M14 melanoma): 2.85 µM | TGI (M14 melanoma): 14 µM | GI50 (MALME-3M melanoma): 2.61 µM | TGI (MALME-3M melanoma): 11.8 µM | GI50 (MCF7 breast): 3.45 µM | TGI (MCF7 breast): 15.2 µM | GI50 (MDA-MB-231 breast): 4.36 µM | TGI (MDA-MB-231 breast): 18.8 µM | GI50 (MDA-MB-435): 2.07 µM | TGI (MDA-MB-435): 5.23 µM | GI50 (MDA-MB-468 breast): 2.14 µM | TGI (MDA-MB-468 breast): 6.63 µM | GI50 (MOLT-4 leukemia): 3.18 µM | TGI (MOLT-4 leukemia): 14.9 µM | GI50 (NCI-H226 lung): 5.88 µM | TGI (NCI-H226 lung): 22.1 µM | GI50 (NCI-H23 lung): 4.64 µM | TGI (NCI-H23 lung): 47.3 µM | GI50 (NCI-H460 lung): 3.33 µM | TGI (NCI-H460 lung): 14.5 µM | GI50 (NCI-H522 lung): 2.18 µM | TGI (NCI-H522 lung): 6.24 µM | GI50 (NCI/ADR-RES ovarian): 2.82 µM | TGI (NCI/ADR-RES ovarian): 9.19 µM | GI50 (OVCAR-3 ovarian): 3.83 µM | TGI (OVCAR-3 ovarian): 13.6 µM | GI50 (OVCAR-4 ovarian): 4.1 µM | TGI (OVCAR-4 ovarian): 33.7 µM | GI50 (OVCAR-5 ovarian): 5.36 µM | TGI (OVCAR-5 ovarian): 23.1 µM | GI50 (OVCAR-8 ovarian): 5.45 µM | TGI (OVCAR-8 ovarian): 22.4 µM | GI50 (PC-3 prostate): 3.1 µM | TGI (PC-3 prostate): 20.5 µM | GI50 (RPMI-8226 leukemia): 3.35 µM | TGI (RPMI-8226 leukemia): 15.7 µM | GI50 (RXF 393 renal): 4.16 µM | TGI (RXF 393 renal): 17.7 µM | GI50 (SF-268 CNS): 4.27 µM | TGI (SF-268 CNS): 34.3 µM | GI50 (SF-295 CNS): 3.31 µM | TGI (SF-295 CNS): 18 µM | GI50 (SF-539 CNS): 4.08 µM | TGI (SF-539 CNS): 14.9 µM | GI50 (SK-MEL-2 melanoma): 2.51 µM | TGI (SK-MEL-2 melanoma): 8.15 µM | GI50 (SK-MEL-28 melanoma): 4.37 µM | TGI (SK-MEL-28 melanoma): 18.4 µM | GI50 (SK-MEL-5 melanoma): 2.95 µM | TGI (SK-MEL-5 melanoma): 10.3 µM | GI50 (SK-OV-3 ovarian): 6.72 µM | TGI (SK-OV-3 ovarian): > 100 µM | GI50 (SN12C renal): 3.19 µM | TGI (SN12C renal): 12.9 µM | GI50 (SNB-19 CNS): 7.35 µM | TGI (SNB-19 CNS): > 100 µM | GI50 (SR leukemia): 2.14 µM | TGI (SR leukemia): 7.25 µM | GI50 (SW-620 colon): 3.38 µM | TGI (SW-620 colon): 17 µM | GI50 (T-47D breast): 2.89 µM | TGI (T-47D breast): 21.2 µM | GI50 (TK-10 renal): 9.26 µM | TGI (TK-10 renal): 74.3 µM | GI50 (U251 CNS): 4.34 µM | TGI (U251 CNS): 17.1 µM | GI50 (UACC-257 melanoma): 3.58 µM | TGI (UACC-257 melanoma): 18.7 µM | GI50 (UACC-62 melanoma): 2.46 µM | TGI (UACC-62 melanoma): 8.58 µM | GI50 (UO-31 renal): 5 µM | TGI (UO-31 renal): 24.8 µM
